Measurements as given in US11123413B2, “Carbapenemases for use with antibiotics for the protection of the intestinal microbiome” (priority 2015, dated 2021).
Several values for one entry are separate records, joined by “and”; a condition that tells them apart may be missing. Identical values can stand only once.

Key:
[1] = Oral P2A and intravenous meropenem in jejunal-fistulated dogs; assay type: in vivo, laboratory beagles; details: peak level in dog jejunum; meropenem 30 mg/kg IV alone; individual dogs
Procedure: The ability of P2A to degrade meropenem in the dog intestinal tract was evaluated using laboratory beagles that had permanent jejunal fistulas. The fistulas allowed the repeated collection of jejunal chyme specimens from these animals. Dogs were treated with peroral P2A (1 mg/kg) in a liquid formulation (PBS buffer), and/or intravenous meropenem (30 mg/kg). Serum samples were collected and serum meropenem levels quantified. Jejunal chyme samples were collected and meropenem and P2A levels were quantified. Meropenem levels in serum and chyme were measured using a plate diffusion method using meropenem susceptible Micrococcus luteus TS504 as the test strain. P2A activity levels in chyme were determined spectrophotometrically using meropenem as a substrate. Meropenem hydrolysis was monitored at a wavelength of 297 nm.

gut microbiome = test system: gut microbiome; set-up: species or system Yorkshire piglets; details: in vivo
Procedure: The animals were treated with ertapenem (30 mg/kg) via intravenous infusion one a day for a total of 7 days.
Two pre-treatment fecal samples were obtained, the first 4 days after the animals arrived at the animal treatment facility (Day −7), and the second 7 days after arrival (Day −4). An additional 3 fecal samples were collected at Day 4, Day 8, and Day 9. The fecal samples were collected using the OMNIgene GUT sample collection kits (OMR-200, DNA Genotek, Ontario, Canada) and stored at room temperature away from light until all samples were collected. DNA isolated from the fecal samples was subjected to deep sequencing of the intestinal microbiome and analyses.
DNA was isolated from the fecal samples and subjected to whole genome shotgun sequencing using an Illumine HiSeq system with a target of 20 million 100 bp single reads per sample. […]
The percent similarity based on the relative bacterial strain abundance was calculated. […] Animals began ertapenem treatment on Day 1 and the percent similarity decreased every day the animals were evaluated. […]
A statistical analysis was performed to determine the probability that the microbiomes before and after antibiotic treatment remained the same or were different. The microbiome sequence data were analyzed using a parameterization of the Dirichlet-Multinomial distribution (La Rosa et al., 2012) to perform a Likelihood Ratio Test. […]

| Structure (SMILES) | Meropenem [1] | microbiome diversity (percent similarity of strain relative abundance) (gut microbiome) |
| --- | --- | --- |
| C[C@@H](O)[C@H]1C(=O)N2C(C(=O)O)=C(S[C@@H]3CN[C@H](C(=O)N(C)C)C3)[C@H](C)[C@H]12 [Meropenem] | 3.0 ug/ml (2×) and 3.2 ug/ml |  |
| C[C@@H](O)[C@H]1C(=O)N2C(C(=O)O)=C(S[C@@H]3CN[C@H](C(=O)Nc4cccc(C(=O)O)c4)C3)[C@H](C)[C@H]12 [ertapenem] |  | causes a loss of diversity in the microbiome |
